From paper PMC7600788, “Sequence Permutation Generates Peptides with Different Antimicrobial and Antibiofilm Activities” (Pharmaceuticals, 2020)
No end group written: not given here.

Columns and labels:
[1] = system: chicken red blood cells; assay: Hemolytic assay; assay type: cell-based
Experimental: (§1) Hemolytic assays of peptides were performed as previously described. Briefly, human red blood cells (hRBCs) obtained from UNMC Blood Bank, or chicken or porcine blood cells purchased from commercial sources as previously described, were washed three times with phosphate buffer saline (PBS) and diluted to a 2% solution (V/v). After peptide treatment, incubation at 37 °C for one hour, and centrifugation at 13,000 rpm, aliquots of the supernatant were carefully transferred to a fresh 96-well microplate. The amount of hemoglobin released was measured at 545 nm. The percent lysis was calculated by assuming 100% release when human blood cells were treated with 2% Triton X-100, and 0% release when incubated with PBS buffer. The peptide concentration that caused 50% lysis of hRBCs is defined as HC50.

[2] = system: Pig RBC; assay: Hemolytic assay; assay type: cell-based
Experimental: as §1

[3] = system: human red blood cells; assay: Hemolytic assay; assay type: cell-based; details: red cells of human
Experimental: as §1

[4] = system: A. baumannii B28-16; assay type: cell-based, Acinetobacter baumannii; details: B28-16
Experimental: (§2) The antimicrobial activity spectrum of the WW peptide series was performed on a panel of Gram-positive and -negative bacteria using the standard broth micro-dilution method with minor modifications as described. […] There was a small change in the case of Pseudomonas aeruginosa and Acinetobacter baumannii up to two-fold. Four-fold changes were found for Staphylococcus aureus, Staphylococcus epidermidis, Escherichia coli, and Bacillus subtilis. However, we observed over eight-fold MIC changes for Klebsiella pneumoniae and vancomycin-resistant enterococcus (VRE). […] We also observed more than eight-fold changes in minimal bacterial killing concentrations.
(§3) The antibacterial activity of peptides was evaluated using a standard broth microdilution protocol with minor modifications as previously described. In brief, logarithmic phase bacterial cultures (i.e., optical density at 600 nm ≈ 0.5) were diluted to OD600~0.001 and partitioned into a 96-well polystyrene microplate at 90 μL per well. After treatment with 10 μL of peptide solutions two-fold diluted to various concentrations, microplates were incubated at 37 °C overnight and read on a ChroMate 4300 Microplate Reader at 630 nm (GMI, Ramsey, MN). […] Minimal bactericidal concentration (MBC) was determined by plating the clear wells at MIC or above. The peptide concentration that caused no bacterial growth on the petri dish is MBC.

[5] = system: S. aureus USA300 LAC; assay type: cell-based, Staphylococcus aureus; details: USA300
Experimental: (§4) To gain additional insight, we also compared the effects of physiological saline and human serum on the antibacterial activities of WW291-WW298 using both E. coli and S. aureus (Table 3). In our assays, salts and serum were present during the entire course of the experiment. […] Thus, WW295 and WW298 stand out in terms of activity robustness (bold in Table 3).
as §3

[6] = system: human keratinocytes (HaCaT); assay: MTS cytotoxicity assay; assay type: cell-based; details: serum free media, one hour treatment
Experimental: (§5) Peptides were assayed for potential in vitro toxicity against human keratinocytes (HaCaT) and THP-1 cells as previously described. THP-1 monocytes were differentiated into macrophages by adding 30 ng/mL of phorbol 12-myristate 13-acetate (PMA; Sigma-Aldrich) to RPMI 1640 supplemented with 10% fetal calf serum culture (FCS) medium for 16 h. Briefly, cells were seeded at a density of 3 × 10^4 per well in a tissue culture 96-well plate in DMEM/RPMI supplemented with 10% fetal bovine serum (FBS), and incubated at 37 °C in a 5% CO2 atmosphere for 24 h. African green monkey kidney Vero E6 cells were cultivated in EMEM in the same manner. Before antimicrobial treatment, wells were replaced with serum free media and treated with peptides at different concentrations for one hour. After incubation, the cells were washed and incubated with 100 μL of DMEM media containing 20 μL of 3-(4,5-dimethylthiazol-2-yl)-5-(3-carboxymethoxyphenyl)-2-(4-sulfophenyl)-2H-tetrazolium (MTS) reagent for two hours at 37 °C. The treatment time was one hour in the case of Vero E6 cells. Absorbance readings at 492 nm were taken using a ChroMate microplate reader (GMI, Ramsey, MN, USA).

[7] = system: PMA differentiated THP-1 cells; assay: MTS cytotoxicity assay; assay type: cell-based; details: PMA differentiated THP-1, serum free media, one hour treatment
Experimental: as §5

[8] = system: E. faecium VRE; assay type: cell-based; details: VRE
Experimental: as §2, §3

[9] = system: S. aureus USA300; assay type: cell-based, Staphylococcus aureus; details: USA300
Experimental: as §3

[10] = system: E. coli ATCC 25922; assay type: cell-based, Escherichia coli; details: ATCC 25922
Experimental: as §4, §3

[11] = system: monkey kidney Vero E6 cells; assay type: cell-based
Experimental: as §5, with “The treatment time was one hour in the case of Vero E6 cells.” left out

[12] = system: S. aureus Mu50; assay type: cell-based, Staphylococcus aureus; details: Mu50
Experimental: as §2, §3

[13] = system: P. aeruginosa PAO1; assay type: cell-based, Pseudomonas aeruginosa; details: PAO1
Experimental: as §2, §3

[14] = system: B. subtilis 167; assay type: cell-based, Bacillus subtilis; details: 167
Experimental: as §2, §3

[15] = system: E. coli K12; assay type: cell-based, Escherichia coli; details: K12
Experimental: as §2, §3

In the case of WLRKIWWW [WW293], the “Chicken RBC, concentration that caused 50% red blood cell lysis (HC50)” value [1] was >100 µM, the “Pig RBC, concentration that caused 50% red blood cell lysis (HC50)” value [2] was >100 µM and the “Human RBC, concentration that caused 50% red blood cell lysis (HC50)” value [3] was 224 µM. For the same sequence, the “Minimal Inhibitory Concentration (MIC), AB” value [4] was 12.5 µM, the “MIC, +150 mM NaCl” value [5] was 6.2 µM and the “MIC, +10% Human Serum” value [5] was >25 µM. For the same sequence, the “MIC, TSB” value [5] was 6.2 µM, the “HaCaT, concentration that caused 50% cell death (LC50)” value [6] was >100 µM and the “THP-1, concentration that caused 50% cell death (LC50)” value [7] was >100 µM. The “Minimal Inhibitory Concentration (MIC), VRE” value [8] was 50 µM, the “MBC, USA300” value [9] was 25 µM and the “MIC, +150 mM NaCl” value [10] was >25 µM. For the same sequence, the “MIC, +10% Human Serum” value [10] was >25 µM, the “MIC, TSB” value [10] was 12.5 µM and the “Vero Cells, concentration that caused 50% cell death (LC50)” value [11] was >100 µM. The “Minimal Inhibitory Concentration (MIC), SA” value [12] was 12.5 µM, the “Minimal Inhibitory Concentration (MIC), PA” value [13] was 50 µM and the “Minimal Inhibitory Concentration (MIC), BS” value [14] was 12.5 µM. The “Minimal Inhibitory Concentration (MIC), EC” value [15] was 12.5 to 25 µM.

For WWWWLRKI [WW298], the “Chicken RBC, concentration that caused 50% red blood cell lysis (HC50)” value [1] was 70 µM, the “Pig RBC, concentration that caused 50% red blood cell lysis (HC50)” value [2] was 37 µM and the “Human RBC, concentration that caused 50% red blood cell lysis (HC50)” value [3] was 52 µM. For the same sequence, the “Minimal Inhibitory Concentration (MIC), AB” value [4] was 6.25 to 12.5 µM, the “MIC, +150 mM NaCl” value [5] was 1.6 µM and the “MIC, +10% Human Serum” value [5] was 12.5 to 25 µM. The “MIC, TSB” value [5] was 1.6 µM, the “HaCaT, concentration that caused 50% cell death (LC50)” value [6] was 80 µM and the “THP-1, concentration that caused 50% cell death (LC50)” value [7] was 30 µM. The “Minimal Inhibitory Concentration (MIC), VRE” value [8] was 12.5 µM, the “MBC, USA300” value [9] was 3.1 µM and the “MIC, +150 mM NaCl” value [10] was 12.5 µM. For the same sequence, the “MIC, +10% Human Serum” value [10] was >25 µM, the “MIC, TSB” value [10] was 12.5 µM and the “Vero Cells, concentration that caused 50% cell death (LC50)” value [11] was 100 µM. For the same sequence, the “Minimal Inhibitory Concentration (MIC), SA” value [12] was 3.1 µM, the “Minimal Inhibitory Concentration (MIC), PA” value [13] was 50 µM and the “Minimal Inhibitory Concentration (MIC), BS” value [14] was 6.25 to 12.5 µM. For the same sequence, the “Minimal Inhibitory Concentration (MIC), EC” value [15] was 12.5 µM.
